In experiment [1] the target is KAT6A (Homo sapiens (Human), UniProt Q92794). In words: KAT assay (SAMDI mass spectrometry), KAT6A.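 Note: Baculovirus-expressed KAT6A acetylating histone H3 (1-21) peptide (2 µM), 30-60 min at room temperature, % product conversion fitted to Morrison equation for tight-binding competitive inhibitors.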 The class given is biochemical.
Description: (§1) Prepare 10 mM stock solutions in 100% DMSO from solid material • 2. Serial dilute 10 mM, 1 mM or 0.1 mM compound stocks 3-fold in 100% DMSO for 11-point dose response
(§2) Prepare 1× assay buffer containing 10 mM Tris HCL pH 8.0, 2.5 mM NaCl, 0.5 mM EDTA, 0.005% BSG and 0.02% Tween-20 • 2. Dilute Histone peptide (CPC Scientific) and AcCoA (Sigma) together in assay buffer to 2×. • 3. Dilute KAT enzyme in assay buffer to 2×.
(§3) Enzyme reaction • 1. Final reaction conditions for each KAT assay in a 20 ul assay reaction volume: • i. KAT5 25 nM, 1 uM AcCoA, 2 uM H4 1-21 peptide, 30-minute reaction • ii. KAT6A 15 nM, 1 uM AcCoA, 2 uM H3 1-21 peptide, 45-minute reaction • iii. KAT6B 25 nM, 1 uM AcCoA, 2 uM H3 1-21 peptide, 60-minute reaction • iv. KAT7 12.5 nM, 1 uM AcCoA, 2 uM H3 1-21 peptide, 45-minute reaction • v. KAT8 15 nM, 1 uM AcCoA, 2 uM H3 1-21 peptide, 45-minute reaction • 2. Add 0.5 ul of diluted compound to the assay plate (384-well V-bottom polypropylene plates) or 0.5 ul of DMSO for control wells. • 3. Add 10 ul of 2× Histone peptide/2×AcCoA mix to the assay plate. • 4. Add 10 ul of 2× enzyme to the assay plate. • 5. Stop the reaction after the indicated time with the addition of 2 ul of 5% formic acid • 6. Each reaction was analyzed using self-assembled monolayer desorption/ionization time-of-flight mass spectrometry (Mrksich, Milan (2008) Mass Spectrometry of Self-Assembled Monolayers: A New Tool for Molecular Surface Science ACS Nano 2008 2 (1), 7-18; SAMDI Tech, Inc. (Chicago, Ill.)). • 7. Area under the curve (AUC) for both substrate and product peaks was determined for KAT5 at M.W. 2561 [Substrate+H]^+ and 2603 [Product+H]^+ with a +/−1 Da tolerance, respectively • 8. Area under the curve (AUC) for both substrate and product peaks was determined for KAT6a, KAT6B, KAT7 and KAT8 at M.W. 2723 [Substrate+H]^+ and 2765 [Product+H]^+ with a +/−1 Da tolerance, respectively. […] Percent conversion to product was calculated by: AUCProduct/(AUCsubstrate+AUCProduct).
(§4) IC50 values were determined by fitting the % conversion at each inhibitor concentration to the 4-parameter IC50 equation using Pfizer proprietary curve fitting software. • 2. Ki values were determined by fitting the % conversion at each inhibitor concentration to the Morrison equation for tightbinding competitive inhibitors using Pfizer proprietary curve fitting software.
(§5) KAT enzymes were expressed using a baculovirus expression system and purified at Pfizer, La Jolla. […] Acetyl coenzyme A was purchased from Sigma-Aldrich (St. Louis, Mo.). All other biochemical reagents were purchased from Sigma-Aldrich or ThermoFisher Scientific (Waltham, Mass.).
(§6) KAT assays were performed at room temperature in assay buffer containing 1 μM AcCoA, 2 μM histone peptide, 10 mM Tris HCL pH 8.0, 2.5 mM NaCl, 0.5 mM EDTA, 0.005% BSG and 0.02% Tween-20. 10 ul of 2× Histone peptide/AcCoA mix was added to a 384-well V-bottom polypropylene assay plate containing 0.5 ul of serially diluted test compound in 100% dimethyl sulfoxide (DMSO). To start the reaction, 10 ul of 2× enzyme solution was added to the assay plate. KAT assays were terminated after 30-60 minutes with the addition of 2 ul of 5% formic acid. All assays used histone H3 (1-21) peptide except for the KAT5 assay which used histone H4 (1-21) peptide. The final enzyme concentration for each KAT was as follows: KAT5, 25 nM; KAT6A, 15 nM; KAT6B, 25 nM; KAT7, 12.5 nM; KAT8 15 nM. Each reaction was analyzed using self-assembled monolayer desorption/ionization time-of-flight mass spectrometry (Mrksich, Milan (2008) Mass Spectrometry of Self-Assembled Monolayers: A New Tool for Molecular Surface Science ACS Nano 2008 2 (1), 7-18; SAMDI Tech, Inc. (Chicago, Ill.)).
(§7) Area under the curve (AUC) for both substrate and product peaks was determined for KAT5 at M.W. 2561 [Substrate+H]^+ and 2603 [Product+H]^+ with a +/−1 Da tolerance, respectively.
In experiment [2] the target is KAT7 (Homo sapiens (Human), UniProt O95251). In words: KAT assay (SAMDI mass spectrometry), KAT7.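 Note: Baculovirus-expressed enzyme acetylating a histone peptide at room temperature, percent conversion from product and substrate peak areas, Ki from a Morrison tight-binding competitive fit.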 The class given is biochemical.
Sequence of KAT7 (O95251 whole entry): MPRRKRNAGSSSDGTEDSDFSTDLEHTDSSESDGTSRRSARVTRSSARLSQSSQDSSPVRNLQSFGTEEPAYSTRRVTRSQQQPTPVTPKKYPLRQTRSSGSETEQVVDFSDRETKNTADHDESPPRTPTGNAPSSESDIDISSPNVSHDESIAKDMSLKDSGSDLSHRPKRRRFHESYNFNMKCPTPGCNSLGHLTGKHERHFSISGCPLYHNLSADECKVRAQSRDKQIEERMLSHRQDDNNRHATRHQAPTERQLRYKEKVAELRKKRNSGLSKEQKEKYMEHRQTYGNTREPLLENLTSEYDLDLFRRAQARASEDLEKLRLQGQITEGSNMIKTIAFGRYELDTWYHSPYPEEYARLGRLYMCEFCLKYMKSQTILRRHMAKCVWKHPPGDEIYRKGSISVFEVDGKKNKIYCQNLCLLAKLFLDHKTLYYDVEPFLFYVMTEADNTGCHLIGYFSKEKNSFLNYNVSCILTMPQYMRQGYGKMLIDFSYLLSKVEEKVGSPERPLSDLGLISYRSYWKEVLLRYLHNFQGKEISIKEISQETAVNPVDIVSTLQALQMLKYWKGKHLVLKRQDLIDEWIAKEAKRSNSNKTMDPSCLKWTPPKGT
Description: as §1, §2, §3, §4, §5, §6, §7
Setting [3] is: read-out: KAT6a Ki at 1 μM AcCoA, 1 μM AcCoA.
[4] abbreviates: read-out: KAT7 Ki at 1 μM AcCoA.
Setting [5] is: read-out: KAT6a Ki at 10 μM AcCoA, 10 μM AcCoA.
Setting [6] is: KAT6a Ki at 1 μM AcCoA, 1 μM AcCoA.
The mark [7] stands for this setting: KAT6a Ki at 10 μM AcCoA, 10 μM AcCoA.

Like-named read-outs stand apart in the source and are kept apart here.

Sequence of KAT6A (Q92794 whole entry): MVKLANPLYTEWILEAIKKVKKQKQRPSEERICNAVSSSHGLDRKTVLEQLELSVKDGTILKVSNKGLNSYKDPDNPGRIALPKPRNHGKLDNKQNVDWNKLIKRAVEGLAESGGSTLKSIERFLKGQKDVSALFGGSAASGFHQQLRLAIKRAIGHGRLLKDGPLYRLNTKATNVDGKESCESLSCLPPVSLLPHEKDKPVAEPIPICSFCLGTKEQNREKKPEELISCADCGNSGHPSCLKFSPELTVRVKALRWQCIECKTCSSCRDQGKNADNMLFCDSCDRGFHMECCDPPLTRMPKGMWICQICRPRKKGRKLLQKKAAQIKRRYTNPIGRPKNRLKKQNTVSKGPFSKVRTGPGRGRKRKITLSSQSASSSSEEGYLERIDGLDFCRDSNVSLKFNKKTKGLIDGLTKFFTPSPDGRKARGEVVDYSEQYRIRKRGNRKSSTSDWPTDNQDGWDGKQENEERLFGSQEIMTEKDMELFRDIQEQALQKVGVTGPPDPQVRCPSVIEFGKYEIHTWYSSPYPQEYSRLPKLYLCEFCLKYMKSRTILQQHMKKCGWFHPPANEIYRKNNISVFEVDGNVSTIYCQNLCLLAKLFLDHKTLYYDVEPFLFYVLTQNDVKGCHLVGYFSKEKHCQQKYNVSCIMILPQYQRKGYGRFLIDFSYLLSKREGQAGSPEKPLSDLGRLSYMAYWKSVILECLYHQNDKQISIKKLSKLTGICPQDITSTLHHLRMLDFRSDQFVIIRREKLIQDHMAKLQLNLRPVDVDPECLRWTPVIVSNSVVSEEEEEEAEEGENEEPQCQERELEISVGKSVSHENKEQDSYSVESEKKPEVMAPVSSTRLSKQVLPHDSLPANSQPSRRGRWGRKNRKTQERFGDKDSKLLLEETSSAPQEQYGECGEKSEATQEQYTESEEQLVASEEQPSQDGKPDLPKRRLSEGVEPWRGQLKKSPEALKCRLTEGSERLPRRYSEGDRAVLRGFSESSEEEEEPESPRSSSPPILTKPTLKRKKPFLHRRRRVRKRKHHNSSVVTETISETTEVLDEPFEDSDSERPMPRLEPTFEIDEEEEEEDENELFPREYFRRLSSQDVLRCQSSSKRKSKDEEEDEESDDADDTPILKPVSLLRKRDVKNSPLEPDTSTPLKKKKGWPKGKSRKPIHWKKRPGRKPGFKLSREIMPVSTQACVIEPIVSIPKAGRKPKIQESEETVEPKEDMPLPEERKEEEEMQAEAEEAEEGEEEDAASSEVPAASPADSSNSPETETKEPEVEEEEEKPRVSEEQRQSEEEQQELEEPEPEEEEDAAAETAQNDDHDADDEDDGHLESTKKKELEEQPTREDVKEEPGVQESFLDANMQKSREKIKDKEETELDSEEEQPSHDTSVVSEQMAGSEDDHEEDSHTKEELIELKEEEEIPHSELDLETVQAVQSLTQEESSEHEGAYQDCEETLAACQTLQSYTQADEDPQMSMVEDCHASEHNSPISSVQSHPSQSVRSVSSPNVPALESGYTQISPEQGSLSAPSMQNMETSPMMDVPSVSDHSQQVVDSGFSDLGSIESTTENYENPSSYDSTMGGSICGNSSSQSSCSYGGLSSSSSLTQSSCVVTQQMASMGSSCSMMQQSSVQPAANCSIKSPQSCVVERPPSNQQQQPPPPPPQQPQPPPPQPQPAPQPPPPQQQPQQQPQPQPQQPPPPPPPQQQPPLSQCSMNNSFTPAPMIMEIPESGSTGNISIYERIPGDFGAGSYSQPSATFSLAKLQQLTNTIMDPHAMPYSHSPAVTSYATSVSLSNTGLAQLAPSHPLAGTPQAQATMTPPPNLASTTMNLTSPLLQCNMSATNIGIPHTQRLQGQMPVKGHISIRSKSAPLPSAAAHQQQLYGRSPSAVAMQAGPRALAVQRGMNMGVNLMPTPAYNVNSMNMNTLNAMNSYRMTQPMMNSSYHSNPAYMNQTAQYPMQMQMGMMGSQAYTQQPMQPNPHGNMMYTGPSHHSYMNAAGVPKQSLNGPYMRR

As for `COc1cccc(OC)c1S(=O)(=O)Nc1noc2cc(C(O)c3cnccn3)cc(OC)c12` (centres unmarked) [Example 123], the inhibition constant (Ki) (commonly a measure of affinity in units of concentration, obtained from inhibition or displacement) was 138 nM in experiment [1] (setting [3]) and 4600 nM in experiment [2] (setting [4]).

Turning to `COc1cc(Cn2cccn2)cc2onc(NS(=O)(=O)c3cc(C)ccc3F)c12` [Example 58], the Ki in experiment [1] (setting [3]) stood at 11.1 nM; in experiment [1] (setting [5]) it was 5.23 nM; in experiment [2] (setting [4]) it was 860 nM.

Take `COc1cc(Cn2cccn2)cc2onc(NS(=O)(=O)c3cc(F)ccc3C)c12` [Example 49]: the inhibition constant (Ki) in experiment [1] (setting [3]) is 9.77 nM; in experiment [1] (setting [5]), 4.14 nM; in experiment [2] (setting [4]) it was 370 nM.

With `COc1cccc(OC)c1S(=O)(=O)Nc1noc2cc(Cc3cnccn3)cc(OC)c12` [Example 111, 2,6-dimethoxy-N-[4-methoxy-6-(pyrazin-2-ylmethyl)-1,2-benzoxazol-3-yl]benzenesulfonamide], the inhibitory constant (Ki) in experiment [1] (setting [3]) amounted to 13 nM; in experiment [2] (setting [4]), 390 nM.

Turning to `COc1cc(Cn2cccn2)cc2onc(NS(=O)(=O)c3cc(F)c(Cl)cc3F)c12` [Example 68], the Ki in experiment [1] (setting [3]) is 14.9 nM; in experiment [1] (setting [5]) it was 10.5 nM; in experiment [2] (setting [4]), 250 nM.

Consider `COc1cccc(OC)c1S(=O)(=O)Nc1noc2cc(C(O)c3cc[nH]n3)cc(OC)c12` (single isomer, unassigned) [Example 117], for which the inhibitory constant (Ki) in experiment [1] (setting [6]) came to 202 nM; in experiment [2] (KAT7 Ki at 1 μM AcCoA) it was 200 nM.

As for `COc1cccc(OC)c1S(=O)(=O)Nc1noc2cc(Cn3ncc4ccccc43)cc(OC)c12` [Example 30], the inhibition constant Ki came to 60 nM in experiment [1] (setting [3]) and 1100 nM in experiment [2] (setting [4]).

With `COc1cccc(OC)c1S(=O)(=O)Nc1noc2cc(Cc3cc[nH]n3)cc(OC)c12` [Example 119], the Ki is 21 nM in experiment [1] (setting [3]), 13 nM in experiment [1] (setting [5]) and 650 nM in experiment [2] (setting [4]).

`COc1ccccc1S(=O)(=O)Nc1noc2cc(Cn3cccn3)c(C)cc12` [Example 132]: the inhibitory constant (Ki) amounted to 4.1 nM in experiment [1] (setting [3]) and 124 nM in experiment [2] (setting [4]).

For the compound `COc1cc(Cn2cccn2)cc2onc(NS(=O)(=O)c3ccc(OC4CC4)cc3)c12` [Example 60], the inhibition constant (Ki) in experiment [1] (setting [3]) stood at 9.81 nM; in experiment [1] (setting [5]), 4.64 nM; in experiment [2] (setting [4]) it was 420 nM.

Consider `COC(=O)c1c(C)cccc1S(=O)(=O)Nc1noc2cc(Cn3cccn3)cc(OC)c12` [Example 74], for which the values for the Ki in experiment [1] (setting [3]), in experiment [1] (setting [5]) and in experiment [2] (setting [4]) were 24.8 nM, 13.6 nM and 2870 nM, respectively.

Regarding `CCOc1ccc(S(=O)(=O)Nc2noc3cc(Cn4cccn4)cc(OC)c23)cc1` [Example 69], the Ki came to 9.1 nM in experiment [1] (setting [5]) and 370 nM in experiment [2] (setting [4]).

As to `COc1cc(Cn2cccn2)cc2onc(NS(=O)(=O)c3cc(F)c(F)cc3F)c12` [Example 86], the inhibitory constant (Ki) in experiment [1] (setting [3]) was 28.9 nM; in experiment [1] (setting [5]) it was 7.11 nM; in experiment [2] (setting [4]), 370 nM.

Turning to `COc1cc(Cn2cccn2)cc2onc(NS(=O)(=O)c3ccccc3C(F)(F)F)c12` [Example 52], the figures for the inhibition constant Ki in experiment [1] (setting [3]), in experiment [1] (setting [5]) and in experiment [2] (setting [4]) were 14.6 nM, 7.32 nM and 660 nM, respectively.

For `COc1cc(Cn2cccn2)cc2onc(NS(=O)(=O)c3c(F)cc(C)cc3F)c12` [Example 62], the Ki in experiment [1] (setting [3]) turned out to be 9.64 nM; in experiment [1] (setting [5]) it was 3.9 nM; in experiment [2] (setting [4]), 360 nM.

Take `COCc1ccc(OC)c(S(=O)(=O)Nc2noc3cc(Cn4cccn4)ccc23)c1` [Example 37]: the figures for the Ki in experiment [1] (setting [3]) and in experiment [2] (setting [4]) were 17 nM and 4600 nM, respectively.

As for `COc1cccc(S(=O)(=O)Nc2noc3cc(Cn4cccn4)cc(OC)c23)c1` [Example 59], the results for the inhibition constant (Ki) in experiment [1] (setting [3]), in experiment [1] (setting [5]) and in experiment [2] (setting [4]) were 13 nM, 6.25 nM and 220 nM, respectively.

`COc1ccc(O)c(OC)c1S(=O)(=O)Nc1noc2cc(Cn3cccn3)cc(OC)c12` [Example 103, 3-hydroxy-2,6-dimethoxy-N-{4-methoxy-6-[(1H-pyrazol-1-yl)methyl]-1,2-benzoxazol-3-yl}benzene-1-sulfonamide]: the inhibitory constant (Ki) was found to be 0.3 nM in experiment [1] (setting [3]), 0.51 nM in experiment [1] (setting [5]) and 150 nM in experiment [2] (setting [4]).

For `COc1cc(Cn2cccn2)cc2onc(NS(=O)(=O)c3cc(F)cc(F)c3)c12` [Example 57], the results for the inhibitory constant (Ki) in experiment [1] (setting [3]) and in experiment [2] (setting [4]) were 16 nM and 450 nM, respectively.

For `COc1cccc(OC)c1S(=O)(=O)Nc1noc2cc(C(O)c3ncco3)cc(OC)c12` (single isomer, unassigned) [Example 109, N-{6-[(R*)-hydroxy(1,3-oxazol-2-yl)methyl]-4-methoxy-1,2-benzoxazol-3-yl}-2,6-dimethoxybenzenesulfonamide], the Ki in experiment [1] (setting [6]) amounted to 44 nM; in experiment [2] (KAT7 Ki at 1 μM AcCoA), 3100 nM.

Take `COc1cccc(O)c1S(=O)(=O)Nc1noc2cc(Cn3cccn3)cc(OC)c12` [Example 104, 2-hydroxy-6-methoxy-N-{4-methoxy-6-[(1H-pyrazol-1-yl)methyl]-1,2-benzoxazol-3-yl}benzene-1-sulfonamide]: the figures for the inhibition constant Ki in experiment [1] (setting [3]), in experiment [1] (setting [5]) and in experiment [2] (setting [4]) were 6.11 nM, 3.89 nM and 2060 nM, respectively.

As for `COc1cc(Cn2cccn2)cc2onc(NS(=O)(=O)c3cccc(F)c3F)c12` [Example 54], the Ki in experiment [1] (setting [3]) turned out to be 57 nM; in experiment [1] (setting [5]), 38 nM; in experiment [2] (setting [4]), 1160 nM.

In the case of `COc1cccc(OC)c1S(=O)(=O)Nc1noc2cc(Cn3cc(O)cn3)cc(OC)c12` [Example 105, N-{6-[(4-hydroxy-1H-pyrazol-1-yl)methyl]-4-methoxy-1,2-benzoxazol-3-yl}-2,6-dimethoxybenzene-1-sulfonamide], the results for the Ki in experiment [1] (setting [3]), in experiment [1] (setting [5]) and in experiment [2] (setting [4]) were 3.08 nM, 6.28 nM and 230 nM, respectively.

Take `COc1cccc(OC)c1S(=O)(=O)Nc1noc2cc(Cc3cnn(C)c3)cc(OC)c12` [Example 124]: the inhibitory constant (Ki) in experiment [1] (setting [3]) was determined as 700 nM; in experiment [2] (setting [4]), 6290 nM.

Turning to `COc1ccc(Cl)cc1S(=O)(=O)Nc1noc2cc(Cn3cccn3)ccc12` [Example 36], the inhibition constant (Ki) was 17 nM in experiment [1] (setting [3]) and 980 nM in experiment [2] (setting [4]).

As for `COc1cc2c(cc1S(=O)(=O)Nc1noc3cc(Cn4cccn4)cc(OC)c13)CCOC2` [Example 43], the Ki in experiment [1] (setting [3]) was determined as 3.6 nM; in experiment [2] (setting [4]), 570 nM.

As for `COc1cccc(OC)c1S(=O)(=O)Nc1noc2cc(Cn3cccn3)cc(Cl)c12` [Example 33], the Ki came to 3.1 nM in experiment [1] (setting [3]) and 310 nM in experiment [2] (setting [4]).

For `COc1cc(C)ccc1S(=O)(=O)Nc1noc2cc(Cn3cccn3)ccc12` [Example 38], the inhibition constant (Ki) was 16 nM in experiment [1] (setting [3]) and 530 nM in experiment [2] (setting [4]).

Take `COc1cccc(OC)c1S(=O)(=O)Nc1noc2cc(C(O)c3ccon3)cc(OC)c12` (single isomer, unassigned) [Example 112]: the Ki stood at 82 nM in experiment [1] (setting [6]) and 1500 nM in experiment [2] (KAT7 Ki at 1 μM AcCoA).

Regarding `Cc1ccc(S(=O)(=O)Nc2noc3cc(Cn4cccn4)c(C)cc23)cc1C` [Example 131], the Ki was found to be 28.3 nM in experiment [1] (setting [3]) and 662 nM in experiment [2] (setting [4]).

With `COc1cccc(OC)c1S(=O)(=O)Nc1noc2cc(Cc3cnoc3)cc(OC)c12` [Example 122], the inhibitory constant (Ki) was 164 nM in experiment [1] (setting [3]), 25 nM in experiment [1] (setting [5]) and 7400 nM in experiment [2] (setting [4]).

In the case of `COc1ccccc1S(=O)(=O)Nc1noc2cc(Cn3cccn3)c(F)c(OC)c12` [Example 129], the Ki in experiment [1] (setting [3]) came to 0.33 nM; in experiment [2] (setting [4]), 10.6 nM.

Regarding `COc1cc(Cn2cccn2)cc2onc(NS(=O)(=O)c3cccc(F)c3C)c12` [Example 56], the Ki was 14.9 nM in experiment [1] (setting [3]), 7.31 nM in experiment [1] (setting [5]) and 600 nM in experiment [2] (setting [4]).

In the case of `COc1ccccc1S(=O)(=O)Nc1noc2cc(Cn3cccn3)cc(C3CC3)c12` [Example 130], the Ki worked out at 0.77 nM in experiment [1] (setting [3]) and 100 nM in experiment [2] (setting [4]).

As for `COc1cccc(OC)c1S(=O)(=O)Nc1noc2cc(Cc3cocn3)cc(OC)c12` [Example 127], the Ki in experiment [1] (setting [3]) is 8.6 nM; in experiment [2] (setting [4]), 137 nM.

As to `COc1ccc(S(=O)(=O)Nc2noc3cc(Cn4cccn4)ccc23)c(OC)c1` [Example 35], the Ki in experiment [1] (setting [3]) came out at 15 nM; in experiment [2] (setting [4]), 420 nM.

In the case of `CNC(=O)c1ccc(S(=O)(=O)Nc2noc3cc(Cn4cccn4)cc(OC)c23)cc1` [Example 66], the inhibition constant Ki was found to be 95.4 nM in experiment [1] (setting [3]), 65.6 nM in experiment [1] (setting [5]) and 4050 nM in experiment [2] (setting [4]).

`COc1cc(Cn2cccn2)cc2onc(NS(=O)(=O)c3ccc(C(F)(F)F)cc3)c12` [Example 46]: the Ki is 32.9 nM in experiment [1] (setting [3]), 13.1 nM in experiment [1] (setting [5]) and 1030 nM in experiment [2] (setting [4]).

For the compound `COc1cccc(OC)c1S(=O)(=O)Nc1noc2cc(C(O)c3cnoc3)cc(OC)c12` (single isomer, unassigned) [Example 120], the Ki in experiment [1] (setting [6]) turned out to be 831 nM; in experiment [1] (setting [7]) it was 212 nM; in experiment [2] (KAT7 Ki at 1 μM AcCoA) it was 2400 nM.

Take `COc1ccc(S(=O)(=O)Nc2noc3cc(Cn4cccn4)cc(OC)c23)c(C)c1F` [Example 85]: the results for the Ki in experiment [1] (setting [3]), in experiment [1] (setting [5]) and in experiment [2] (setting [4]) were 13.3 nM, 8.77 nM and 1140 nM, respectively.

With `COc1cccc(OC)c1S(=O)(=O)Nc1noc2cc(C(O)c3cnoc3)cc(OC)c12` (single isomer, unassigned) [Example 121], the Ki in experiment [1] (setting [6]) is 1580 nM; in experiment [1] (setting [7]), > 600 nM; in experiment [2] (KAT7 Ki at 1 μM AcCoA), > 15000 nM.

Take `COc1cc(Cn2cccn2)cc2onc(NS(=O)(=O)c3cc(F)c(F)c(F)c3)c12` [Example 64]: the values for the Ki in experiment [1] (setting [3]), in experiment [1] (setting [5]) and in experiment [2] (setting [4]) were 25.3 nM, 11 nM and 630 nM, respectively.

For the compound `COc1cccc(OC)c1S(=O)(=O)Nc1noc2cc(C(O)c3ccon3)cc(OC)c12` (single isomer, unassigned) [Example 113], the Ki is 14 nM in experiment [1] (setting [6]) and 2800 nM in experiment [2] (KAT7 Ki at 1 μM AcCoA).

For the compound `CCc1nc2cc(S(=O)(=O)Nc3noc4cc(Cn5cccn5)cc(OC)c34)ccc2o1` [Example 81], the inhibition constant Ki in experiment [1] (setting [3]) stood at 18.2 nM; in experiment [1] (setting [5]) it was 9.96 nM; in experiment [2] (setting [4]), 1620 nM.

On to `COc1cccc(OC)c1S(=O)(=O)Nc1noc2cc(C(O)c3ncco3)cc(OC)c12` (single isomer, unassigned) [Example 108, N-{6-[(S*)-hydroxy(1,3-oxazol-2-yl)methyl]-4-methoxy-1,2-benzoxazol-3-yl}-2,6-dimethoxybenzenesulfonamide], for which the Ki was determined as 72 nM in experiment [1] (setting [6]) and 1300 nM in experiment [2] (KAT7 Ki at 1 μM AcCoA).
